We go through three compounds from publication PMC10385664, “Projection of Target Drug Particle Size in Oral Formulations Using the Refined Developability Classification System (rDCS)” (Pharmaceutics, 2023).

≈ marks a conversion by molar mass, not a printed value. Where two headings read alike, the source gives them in different places.

Series [1] can be described thus: Shake-flask equilibrium solubility in FaSSIF V1. It is filed as physicochemical. The conditions noted are these: for solubility thermodynamic at 24 h: pH 6.5, thermodynamic from solid, FaSSIF V1, pH 6.50 ± 0.05, 37 °C, read-out: CS FaSSIF V1 (thermodynamic solubility). As to the method:
Equilibrium solubilities of the three APIs in FaSSIF V1 were measured with the shake-flask method, following the ICH M9 guideline on BCS-based biowaivers. Briefly, an excess amount of each API was weighed into a 5 mL vial and the assay medium (FaSSIF V1) was added. The resulting suspensions were incubated at 37.0 ± 0.5 °C (Memmert Incubator IN750, Memmert GmbH + Co. KG, Schwabach, Germany) and agitated for 24 h at 25 rpm (LABINCO LD76 Digital Rotary Mixer, Labinco BV, Breda, The Netherlands). At 2, 4, 6 and 24 h, samples were drawn and filtered through Acrodisc 13 mm with 0.45 µm PTFE filters (Pall Corporation, Port Washington, NY, USA) after establishing that adsorption of the APIs onto the filters was less than 5%. Before sampling, the suspensions were checked visually for the presence of solid particles and the pH was measured (Metrohm 780 pH Meter, Metrohm AG, Herisau, Switzerland). All measured pH values were within the specified range of pH 6.50 ± 0.05, so no pH adjustment was necessary. The filtrates were diluted with a 1:1 mixture of ACN and Milli-Q water for analysis using ultra-performance liquid chromatography with UV detection (UPLC-UV).
XRPD patterns of the residual solids were compared to the starting material and literature profiles. A differential scanning calorimetry (DSC) analysis of the input materials was additionally performed. Istradefylline samples were protected from light in all studies using amber vials and aluminum foil to prevent photolysis. The experimental details of the UPLC-UV methods and solid state analyses can be found in Supplementary Materials.
The solubility experiments were performed in triplicate (n = 3) and solubilities are presented as means (± SD). The mean values were used as input for the rDCS and rtarget calculations.
S.2.4. rDCS Standard Investigations: Solubility Studies
Samples from the solubility studies were analyzed with UPLC‐UV analysis. For voriconazole and lemborexant a Waters Acquity UPLC System consisting of a sample manager, a binary solvent manager, and a PDA detector was used (Waters Corporation, Milford, USA). For istradefylline a Waters Acquity UPLC H‐Class System consisting of a sample manager, a quarternary solvent manager, and a PDA detector was used (Waters Corporation, Milford, MA , USA). The chromatograms were recorded and processed using the software Empower® version 3.0. Representative chromatograms for each API are shown in […]
the FaSSIF V1 solubility study were collected and examined using X‐ray powder diffraction (XRPD) analysis to detect solution‐mediated solid state changes. After 24 h, 1 to 5 mg of the residual solid was collected, pl aced on a zero‐background holder and allowed to sit at room temperature for 2 h. […]

The conditions of series [2]: cited from earlier work.

Take `CCn1c(=O)c2c(nc(/C=C/c3ccc(OC)c(OC)c3)n2C)n(CC)c1=O` [Istradefylline, istradefylline]: in series [1], the thermodynamic solubility at 24 h came out at 3.59 ± 0.05 µg/mL (≈ 9.34 µM). The “Literature pKa” value in series [2] (basic pKa, method not disclosed) is 0.78 ^3 [31, 34].

For the compound `Cc1ncc(OC[C@@]2(c3cccc(F)c3)C[C@H]2C(=O)Nc2ccc(F)cn2)c(C)n1` [Lemborexant, lemborexant], in series [1], the solubility (thermodynamic) at 24 h came out at 23.3 ± 0.1 µg/mL (≈ 56.8 µM). In series [2] (estimated by capillary electrophoresis), the “Literature pKa” value is <3.50 [33].

For the compound `C[C@@H](c1ncncc1F)[C@](O)(Cn1cncn1)c1ccc(F)cc1F` [Voriconazole, voriconazole], in series [1], the thermodynamic solubility at 24 h amounted to 827 ± 6 µg/mL (≈ 2370 µM). Further, the solubility at 24 h in series [1] (pH 6.5, Excel template input, FaSSIF V1, read-out: Estimate of intestinal solubility (CS)) is 827 µg/mL (≈ 2370 µM). In addition, the “Literature pKa” value in series [2] (basic pKa, triazole moiety, method not disclosed) is 1.76 ^3 [32].
